# Experimental data reported in US11549115B2, “Compositions and methods for regulated gene expression” (YALE UNIVERSITY, priority 2017, dated 2023).
# B1: P1: Constitutive promoter of Bacteroides 16S rDNA (BT_r09 P1) (nucleic acid)
# DNA: TTTTGCACCCGCTTTCCAAGAGAAGAAAGCCTTGTTAAATTGACTTAGTGTAAAAGCGCAGTACTGCTTGACCATAAGAACAAAAAAACTTCCGATAAAGTTTGGAAGATAAAGCTAAAAGTTCTTATCTTTGCAGTC
# modifications: Constitutive promoter (last nucleotide is +1 TSS)
# B2: ss-Bte1: Periplasmic localized T6SS effector from B. fragilis NCTC 9343 (protein)
# chain: MKKILSLLVMAIVAIQFSFAGGKEIEIKKLPEFEAMVNAGNTTYTGLVEGIGYVYWTTETLYFIRTNPEQLWAIPKYQQIPFPYFQRKDAIIETKTLHTLHVLSKDELLKLDYDAYYAFYGIVEEMLKFIHRADAIKSYCEIPLPIIKSKGALKGNDARNGILSLGSQINDQIGAPLDAANMLMDNKHIGKIGDGLSLISIIDEVGNGEYWSAAGDILLFAAGKTKLSPYMTVISLGTWMYETDLMQWRLACINYSDYKKTLIKYRELQKKFESGDKSVEEKMNECHKILNSHYIEMQKNLGNLGVKF
# modifications: Periplasmic-localized T6SS effector from B. fragilis NCTC 9343
# B3: P1TDP^C56: Synthetic aTC-inducible promoter (distal and proximal tetO2) + RBS C56 (nucleic acid)
# DNA: TTTGCACCCGCTTTCCAAGAGAAGAAAGCCTTGTTAAATTGACTTAGTGTAAAAGCGCAGTACTGCTTGACCATAAGAACAAAAAAATCTCTATCACTGATAGGGATAAAGTTTGGAAGATAAAGCTAAAAGTTCTTATCTTTGCAGTCTCCCTATCAGTGATAGAGACGCATTTTAAAATAAAATAAATTATTCGTTTAGTTAAACGAATCCATG
# modifications: P1TDP-C56 Synthetic aTC-inducible promoter (distal and promixal tetO2)+RBS C56
# B4: ss-Bfe1: Periplasmic localized T6SS effector from B. fragilis 638R (protein)
# chain: MKKILSLLVMAIVAIQFSFAGAYRNEYKTQSEFNVILERGDDYEGFVVGLGYTWMSSKVILPVNQNGWSPISRNVSVDESFHTIVSERKYDTSQYAYEKSLMQDPTKVSEKVRDLIVKNKGNNITEINLGQEKQYLPTDNSQISIVITDTGSRYEIVISATDNSNGKTYEAKYESLTDLVSAVRDSGSLPAVNKEGPNLEGLAGLGFGIAETAGNWAEKIMDNRGAYLPKQMRFSPKTLPPIIRLPLGNYQVPAKGMSRVRGVGKALGWAGMVLTGYQVVRDVQNGRFAVAGTRIAVAGLAYGVTFIPYVGWVLAIGIGVADYTWGDEFYDWIDNRASELEMWWDGVRLAL
# modifications: Periplasmic-localized T6SS effector from B. fragilis 638R
# How the values were obtained:
# sialidases = conditions: cited from earlier work
# [1] = Sialic acid in murine fecal samples (LC-MS/MS); type: in vivo; conditions: Swiss Webster, mouse, faeces; oral gavage, gnotobiotic mice monocolonized with B. thetaiotaomicron BT0455
# Protocol: Groups of 6 germ-free Swiss Webster mice were orally gavaged with 1×10^9 CFU of the desired B. thetaiotaomicron strain. Fecal samples (˜100-200 mg) were collected daily for 12 days. aTC (100 μg/mL) was administered in drinking water for 12 hours after fecal collection on day 1. Fecal samples were homogenized in 1 mL of 1× tris-buffered saline (TBS) with a single 5 mm stainless steel bead using a bead beater (BioSpec Products) at 26° C. for 1 minute on the high setting, followed by vortexing at top speed for 8 minutes. Samples were then centrifuged at 500×g for 1 minute to pellet fibrous and insoluble matter. […]
# For sialic acid measurements, 5 μL of internal standard solution (50 μM 1,2,3-^13C3 sialic acid in H2O) were added to each sample (20 μL) and proteins were precipitated through addition of 100 μL organic solvents at −20° C. […] The MassHunter Quantitative Analysis Software (Agilent, version 7.0) was used for peak integration with the most abundant ion fragment as quantifier and the others as qualifiers of the peak. Quantification was based on calibration curves using commercially available sialic acid and the signal intensity of the internal standard spiked into each sample.
# B. thetaiotaomicron [2] = assay: Polymyxin B susceptibility (MIC, E-test strips); type: cell-based, Bacteroides thetaiotaomicron
# Protocol: Minimum inhibitory concentrations (MICs) were determined on solid medium using E-test strips (Biomerieux) as previously described (Cullen, T. W. et al., 2015, Science, 347:170-175), except that cultures were initially grown for 18 hours in liquid medium. Cultures were adjusted to OD600˜1.0 and 100 μL of cell suspension was then spread onto BHI-blood agar plates. Surface liquid was allowed to dry in a fume hood for 10 minutes, followed by application of the E-test strip to the agar surface.
# B. thetaiotaomicron [3] = conditions: cited from earlier work
# [4] = tested on: NanoLuc luciferase reporter in B. thetaiotaomicron; assay: NanoLuc luciferase assay from in vitro samples (promoter activity); type: cell-based, Bacteroides thetaiotaomicron
# Protocol: The NanoLuc luciferase assay was performed as described (Mimee, M. et al., 2015, Cell Syst., 1:62-71), with the following modifications. All strains were first grown for 18 hours in TYG medium or Gut Microbiota Medium and diluted 250-fold into fresh medium in appropriate conditions (with or without aTC). Cultures were grown to mid exponential phase (OD600 0.3-0.4) and colony forming units (CFU) were measured by dilution plating. 500 μL of the culture was centrifuged at 21,130×g for 3 minutes, resuspended in 50 μL 1× BugBuster (Novagen) in 1×PBS and lysed by one cycle of freeze-thaw and nutation at 26° C. for 10 minutes. Lysates were cleared of cellular debris by centrifugation at 21,130×g for 10 minutes at 4° C. 10 μL of the supernatant was mixed with an equal volume of NanoLuc Reaction Buffer using the Nano-Glo Luciferase Assay System (Promega) and incubated for 5 minutes at 26° C. to induce luminescence production. Relative Light Units (RLU) were measured using a fluorescence plate reader (BioTek Synergy H1) with an integration time of 1 second at a gain setting of 100. Luminescence values were normalized to colony forming units (CFUs) because experimental conditions (e.g., growth medium, antibiotics, aTC, heterologous gene expression) affect the correlation between CFUs and OD600 in Bacteroides.
# B. thetaiotaomicron [5] = assay: aTC-induced expression of periplasm-targeted T6SS effectors (viability, culture density); type: cell-based, Bacteroides thetaiotaomicron; conditions: under P1TDP in Bt::tetR, aTC added
# Description: To direct Bte1 and Bfe1 to the periplasm upon expression in B. thetaiotaomicron, the genes encoding each effector were first PCR amplified from genomic DNA purified from B. fragilis NCTC 9343 and B. fragilis 638R, respectively, using the CTAB method. A periplasmic localization signal was searched for that would be cleaved after translocation to prevent steric hindrance of the effector. To identify proteins that encode N-terminal B. thetaiotaomicron periplasmic localization signals that are post-translationally cleaved after protein translocation, the proteome of the Bacteroides thetaiotaomicron VPI-5482 chromosome was searched for signal peptides (PTM/Processing; Molecule Processing, Signal Peptide) using UniProt (UniProt Consortium, 2015, Nucleic Acids Research, 43:D204-D212). To exclude membrane proteins that potentially encode an uncleaved signal peptide, the search was refined by an additional query for the term “periplasmic” under Protein name. To identify a short periplasmic signal, the maximum length for the signal peptide was set at 20 amino acids. […] Therefore, the B. fragilis effectors were fused at the 5′ end (minus the ATG start codon) to the first 63 base pairs (encoding the first 21 amino acids) of the BT4676 open reading frame (see Table 2 for sequence) in order to localize them to the periplasm after expression in B. thetaiotaomicron.
molecule,measurement,setting,value
"CC(=O)N[C@H]1[C@H]([C@H](O)[C@H](O)CO)O[C@@](Oc2ccc([N+](=O)[O-])cc2)(C(=O)O)C[C@@H]1O [pNP-SA, 2-O-(p-Nitrophenyl)-t-D-N-acetylneuraminic acid]",Km,sialidases,110 µM
"CC(=O)N[C@H]1[C@H]([C@H](O)[C@H](O)CO)OC(O)(C(=O)O)C[C@@H]1O (some centres unmarked) [sialic acid, N-acetylneuraminic acid]",half-life,[1],~9 h
polymixin B [PMB],PMB MIC,"B. thetaiotaomicron [2]; Bt::tetR lpxF carrying P1TDP-lpxF fusion, TetR repressed, no aTC",< 0.064 µg/mL
same,reduction of PMB MIC by TetR repression of P1TDP-lpxF,"B. thetaiotaomicron [2]; Bt::tetR lpxF, no aTC","over 10,000 fold"
same,PMB MIC,B. thetaiotaomicron [2]; wildtype B. thetaiotaomicron,> 1024 µg/mL
same,reduction of PMB resistance by deletion of lpxF,B. thetaiotaomicron [3],four orders of magnitude
B1,PMB resistance of B. thetaiotaomicron lpxF mutant expressing lpxF from the promoter,B. thetaiotaomicron [2]; no TetR,increases PMB resistance to wildtype levels
same,effect of TetR on promoter activity,"[4]; Bt::tetR, no aTC",no effect
B2,toxicity on expression in B. thetaiotaomicron,B. thetaiotaomicron [5],highly toxic
B3,luminescence lower than the weakest native promoter tested,"[4]; OFF state, 18 native B. thetaiotaomicron promoters",6.7 fold
B4,toxicity on expression in B. thetaiotaomicron,B. thetaiotaomicron [5],highly toxic
